Measured values published in PubChem BioAssay (NCI).
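Briefly, cells in 96-well plates were exposed to five compound concentrations for 48 h, and endpoints were estimated by linear interpolation. TGI is the concentration that stops growth completely.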

How the values were obtained:
Experiment in all cases: NCI tumour cell line growth inhibition, 48 h
[1] = system: A549 NSCLC
[2] = system: CAKI-1 renal
[3] = system: CCRF-CEM leukemia
[4] = system: MDA-MB-231 breast
[5] = system: NCI-H23 lung
[6] = system: OVCAR-4 ovarian
[7] = system: PC-3 prostate
[8] = system: SK-OV-3 ovarian
[9] = system: SW-620 colon
[10] = system: UO-31 renal

O=c1/c(=C/c2ccc(-c3ccc(Cl)cc3Cl)o2)sc2n1[C@@H](c1ccc3c(c1)OCO3)C=C(c1cc(F)c(Cl)cc1Cl)N=2
TGI [1]: > 100 µM
TGI [2]: > 100 µM
TGI [3]: > 100 µM
TGI [4]: 57.2 µM
TGI [5]: > 100 µM
TGI [6]: > 100 µM
TGI [7]: > 100 µM
TGI [8]: 62.1 µM
TGI [9]: > 100 µM
TGI [10]: 95.1 µM

C=C(C(=O)OC)[C@H]1CC/C(C)=C/CC/C(C)=C/CC[C@@]2(C)O[C@@H]2C1
TGI [1]: 37.4 µM
TGI [2]: 28.1 µM
TGI [3]: 30 µM
TGI [4]: 33.6 µM
TGI [5]: 68.1 µM
TGI [6]: > 100 µM
TGI [7]: 46.4 µM
TGI [8]: > 100 µM
TGI [9]: 37.2 µM
TGI [10]: 55 µM

CSc1ccccc1P(CCP(c1ccccc1SC)c1ccccc1SC)c1ccccc1SC
TGI [1]: > 100 µM
TGI [2]: > 100 µM
TGI [3]: 29.6 µM
TGI [4]: > 100 µM
TGI [5]: > 38.1 µM
TGI [6]: > 100 µM
TGI [7]: > 100 µM
TGI [8]: > 55.4 µM
TGI [9]: > 100 µM
TGI [10]: > 90.3 µM

CC(C)CC(NC(=O)C(COc1ccc([N+](=O)[O-])cc1)Cc1ccccc1)C(=O)Nc1ccccc1 (stereo unspecified)
TGI [1]: 69.2 µM
TGI [2]: 83.8 µM
TGI [3]: > 100 µM
TGI [4]: 80.3 µM
TGI [5]: 28.7 µM
TGI [6]: 8.33 µM
TGI [7]: > 100 µM
TGI [8]: 28.5 µM
TGI [9]: > 100 µM
TGI [10]: 24.5 µM

OC(O)(C(F)(F)F)C(F)(F)F
TGI [1]: > 100 µM
TGI [2]: > 100 µM
TGI [3]: > 100 µM
TGI [4]: > 100 µM
TGI [5]: > 100 µM
TGI [6]: > 100 µM
TGI [7]: > 100 µM
TGI [8]: > 100 µM
TGI [9]: > 100 µM
TGI [10]: > 100 µM

COC(=O)C1[C@H](C(=O)OC)C1(Br)CBr (stereo partly specified)
TGI [1]: > 100 µM
TGI [2]: > 100 µM
TGI [4]: > 100 µM
TGI [5]: > 100 µM
TGI [6]: > 100 µM
TGI [7]: > 100 µM
TGI [8]: > 100 µM
TGI [9]: > 100 µM
TGI [10]: > 100 µM

O=S(=O)(O)c1ccc(Nc2ccnc3cc(Cl)ccc23)cc1
TGI [1]: > 100 µM
TGI [2]: > 100 µM
TGI [3]: > 100 µM
TGI [4]: > 100 µM
TGI [5]: > 100 µM
TGI [6]: > 100 µM
TGI [7]: > 100 µM
TGI [8]: > 100 µM
TGI [9]: > 100 µM
TGI [10]: > 100 µM

CN/N=C(\C(=O)Nc1ccc([N+](=O)[O-])cc1[N+](=O)[O-])C1NC(=O)NC1=O (stereo unspecified)
TGI [1]: > 100 µM
TGI [2]: > 100 µM
TGI [3]: > 100 µM
TGI [5]: > 100 µM
TGI [6]: > 100 µM
TGI [8]: > 100 µM
TGI [9]: > 100 µM
TGI [10]: > 100 µM

Cc1nn(-c2ccccn2)c2c1C(SC#N)=C(C=O)CC2
TGI [1]: 46 µM
TGI [2]: 19 µM
TGI [3]: 6.43 µM
TGI [4]: 31.9 µM
TGI [5]: 32.2 µM
TGI [7]: 33.8 µM
TGI [8]: 61.5 µM
TGI [9]: 59.3 µM
TGI [10]: 29.1 µM

C[C@@H]1OCC(O)C([C@H]2OC(c3ccccc3)=N[C@H]2CO)O1 (stereo partly specified)
TGI [1]: > 100 µM
TGI [2]: > 100 µM
TGI [3]: > 100 µM
TGI [4]: > 100 µM
TGI [5]: > 100 µM
TGI [6]: > 100 µM
TGI [7]: > 100 µM
TGI [8]: > 100 µM
TGI [9]: > 100 µM
TGI [10]: > 100 µM

O=c1c(-c2ccc(O)cc2)coc2cc(O)cc(O)c12
TGI [1]: > 100 µM
TGI [5]: > 100 µM
TGI [6]: > 100 µM
TGI [7]: > 100 µM
TGI [9]: > 100 µM
TGI [10]: > 100 µM

CC(=O)Nc1ccc(/C=C(\NC(=O)c2ccccc2)C(=O)NNS(=O)(=O)c2ccc(C)cc2)cc1
TGI [1]: > 100 µM
TGI [2]: > 100 µM
TGI [3]: > 100 µM
TGI [5]: > 100 µM
TGI [6]: > 100 µM
TGI [8]: > 100 µM
TGI [10]: > 100 µM

Oc1ccc2ccccc2c1OCc1nnc(CCCCCCCCc2nnc(COc3c(O)ccc4ccccc34)o2)o1
TGI [1]: > 100 µM
TGI [2]: > 100 µM
TGI [4]: > 100 µM
TGI [5]: > 100 µM
TGI [6]: > 100 µM
TGI [7]: > 100 µM
TGI [8]: > 100 µM
TGI [9]: > 100 µM
TGI [10]: > 100 µM

C[n+]1c(-c2ccc(/C=N/Nc3ccnc(N/N=C/c4ccc(-c5cn6ccccc6[n+]5C)cc4)n3)cc2)cn2ccccc21
TGI [1]: > 100 µM
TGI [4]: > 100 µM
TGI [6]: > 100 µM
TGI [7]: > 100 µM
TGI [8]: > 100 µM
TGI [9]: > 100 µM
TGI [10]: 45.4 µM

CC(=O)[C@H]1CCC2[C@@H]3CC=C4C(O)C(OS(=O)(=O)O)CC[C@]4(C)C3CC[C@@]21C (stereo partly specified)
TGI [1]: > 100 µM
TGI [2]: > 100 µM
TGI [3]: > 100 µM
TGI [5]: > 100 µM
TGI [6]: > 100 µM
TGI [8]: > 100 µM
TGI [9]: > 100 µM
TGI [10]: > 100 µM

C=C1CC(OC)(C(O)C(=O)N[C@H]2OCO[C@H]3C2O[C@H](C[C@H](O)COC)C(C)(C)C3OC)O[C@H](C)[C@@H]1C (stereo partly specified)
TGI [1]: > 0.00772 µM
TGI [3]: > 0.00772 µM
TGI [5]: > 0.00772 µM
TGI [6]: > 0.00772 µM
TGI [10]: > 0.00772 µM

CN(C)C=Nc1nncc2n[nH]nc12
TGI [1]: > 100 µM
TGI [2]: > 100 µM
TGI [3]: > 100 µM
TGI [4]: > 100 µM
TGI [5]: > 100 µM
TGI [7]: > 100 µM
TGI [9]: > 100 µM
TGI [10]: > 100 µM

CCC1CCC2c3c([nH]c4ccccc34)C3C(=O)N(c4ccc(OC)cc4)C(=O)C3C2C1 (stereo unspecified)
TGI [1]: 59.7 µM
TGI [3]: 26.7 µM
TGI [4]: > 100 µM
TGI [5]: > 100 µM
TGI [6]: 36 µM
TGI [7]: > 100 µM
TGI [8]: > 100 µM
TGI [9]: 82.4 µM
TGI [10]: > 100 µM

CN(CCN(C)C(=O)CCn1ccc(=O)[nH]c1=O)C(=O)CCn1ccc(=O)[nH]c1=O
TGI [1]: > 100 µM
TGI [3]: > 100 µM
TGI [5]: > 100 µM
TGI [6]: > 100 µM
TGI [9]: > 100 µM
TGI [10]: > 100 µM

O=C(NCc1ccccc1)c1c(O)c2ccccc2[nH]c1=O
TGI [1]: > 100 µM
TGI [2]: > 100 µM
TGI [3]: > 100 µM
TGI [4]: > 100 µM
TGI [5]: > 100 µM
TGI [6]: > 100 µM
TGI [7]: > 100 µM
TGI [9]: > 100 µM
TGI [10]: > 100 µM

O=C(NCCCCNCCCNC(=O)OCc1ccccc1)OCc1ccccc1
TGI [1]: > 100 µM
TGI [3]: 82.1 µM
TGI [5]: > 100 µM
TGI [6]: > 100 µM
TGI [7]: > 100 µM
TGI [8]: > 100 µM
TGI [9]: > 100 µM
TGI [10]: 93.1 µM

O=C1OC(c2ccccc2)=N/C1=C/N1CCCC1C(=O)O (stereo unspecified)
TGI [1]: > 100 µM
TGI [2]: > 100 µM
TGI [3]: > 100 µM
TGI [5]: > 100 µM
TGI [6]: > 100 µM
TGI [8]: > 100 µM
TGI [9]: > 100 µM
TGI [10]: > 100 µM

c1ccc(COc2cccc3cccnc23)cc1
TGI [1]: > 100 µM
TGI [3]: > 100 µM
TGI [5]: > 100 µM
TGI [6]: > 100 µM
TGI [8]: > 100 µM
TGI [9]: > 100 µM
TGI [10]: > 100 µM

Cc1cc(C)c2c(c1)CC1(Cc3c(C)cc(C)cc3C1=O)C2=O (stereo unspecified)
TGI [1]: > 100 µM
TGI [2]: > 100 µM
TGI [3]: > 100 µM
TGI [4]: > 100 µM
TGI [6]: > 100 µM
TGI [7]: > 100 µM
TGI [9]: > 100 µM
TGI [10]: > 100 µM
